Measured values: patent publication US20240101600A1, “FIBROBLAST GROWTH FACTOR RECEPTOR (FGFR)-TARGETING ANTAGONISTIC SHORT PEPTIDE” (WENZHOU MEDICAL UNIVERSITY, priority 2019, published 2024)
Where no end group is shown, it is not given here.

Columns and labels:
[1] = target: FGFR1 (Mus musculus, UniProt P16092); experiment: Western blot of bFGF-induced FGFR1 activation in Balb/c 3T3 fibroblasts; type: cell-based; parameters: endogenous in cells; host or cells: MEF-WT; Balb/c 3T3; settings: P48 pretreatment 10 min, bFGF 15 min
Chain of FGFR1 (Mus musculus, UniProt P16092) (P16092 22-822): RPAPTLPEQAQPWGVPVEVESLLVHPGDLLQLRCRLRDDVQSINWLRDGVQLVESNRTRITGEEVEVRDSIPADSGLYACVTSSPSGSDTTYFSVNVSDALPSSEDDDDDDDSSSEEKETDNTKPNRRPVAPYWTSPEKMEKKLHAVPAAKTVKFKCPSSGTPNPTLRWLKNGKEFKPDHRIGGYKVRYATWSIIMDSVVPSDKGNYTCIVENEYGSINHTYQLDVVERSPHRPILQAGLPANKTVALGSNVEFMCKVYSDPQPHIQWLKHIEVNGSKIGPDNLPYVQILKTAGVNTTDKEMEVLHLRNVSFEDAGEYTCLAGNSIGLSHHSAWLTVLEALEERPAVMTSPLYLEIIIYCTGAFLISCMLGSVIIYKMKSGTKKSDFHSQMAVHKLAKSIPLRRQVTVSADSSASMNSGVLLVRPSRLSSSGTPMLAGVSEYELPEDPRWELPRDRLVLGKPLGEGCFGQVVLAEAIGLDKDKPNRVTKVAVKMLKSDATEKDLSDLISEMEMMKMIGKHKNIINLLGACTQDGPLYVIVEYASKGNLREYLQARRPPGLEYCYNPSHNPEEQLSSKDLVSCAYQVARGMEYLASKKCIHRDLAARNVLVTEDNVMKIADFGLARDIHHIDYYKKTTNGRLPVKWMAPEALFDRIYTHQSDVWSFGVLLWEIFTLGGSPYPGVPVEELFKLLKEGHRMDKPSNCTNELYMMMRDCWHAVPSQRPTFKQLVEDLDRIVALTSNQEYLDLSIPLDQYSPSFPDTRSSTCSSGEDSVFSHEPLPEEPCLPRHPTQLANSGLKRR
Experimental: (§1) Human embryonic kidney cells HEK-293, fibroblasts MEF-WT and Balb/c 3T3 were inoculated into 6-well plates, respectively. After growing adherently overnight, the cells were pretreated with P48 for 10 min or with AZD4547/PD173074/SSR for 2 h, and incubated with bFGF for 15 min. […] The experimental procedure was as follows: MEF-WT and MEFKO (FGFR1-FGFR2-FRS2a) cells (1×10^6 cells/ml) were inoculated in a 35 mm petri dish. After being adhered to the wall of petri dish overnight, the cells were washed with PBS; FITC-conjugated P48 (1, 10, 100 and 1000 nM) was added, and the cells were incubated in an incubator for 30 min. The cells were immobilized with 1% paraformaldehyde in the dark and washed with PBS. An expression level of the FITC was measured at a fluorescence channel 1 (FL-1) (530 nm), with an excitation wavelength of 488 nm. Data analysis was conducted using CellQuest software (Becton Dickinson).

[2] = target: FGFR3B (Homo sapiens, UniProt P22607); experiment: SPR detection of interaction with FGFR3B; type: binding
Chain of FGFR3B (P22607 23-808 isoform P22607-2 limits assumed): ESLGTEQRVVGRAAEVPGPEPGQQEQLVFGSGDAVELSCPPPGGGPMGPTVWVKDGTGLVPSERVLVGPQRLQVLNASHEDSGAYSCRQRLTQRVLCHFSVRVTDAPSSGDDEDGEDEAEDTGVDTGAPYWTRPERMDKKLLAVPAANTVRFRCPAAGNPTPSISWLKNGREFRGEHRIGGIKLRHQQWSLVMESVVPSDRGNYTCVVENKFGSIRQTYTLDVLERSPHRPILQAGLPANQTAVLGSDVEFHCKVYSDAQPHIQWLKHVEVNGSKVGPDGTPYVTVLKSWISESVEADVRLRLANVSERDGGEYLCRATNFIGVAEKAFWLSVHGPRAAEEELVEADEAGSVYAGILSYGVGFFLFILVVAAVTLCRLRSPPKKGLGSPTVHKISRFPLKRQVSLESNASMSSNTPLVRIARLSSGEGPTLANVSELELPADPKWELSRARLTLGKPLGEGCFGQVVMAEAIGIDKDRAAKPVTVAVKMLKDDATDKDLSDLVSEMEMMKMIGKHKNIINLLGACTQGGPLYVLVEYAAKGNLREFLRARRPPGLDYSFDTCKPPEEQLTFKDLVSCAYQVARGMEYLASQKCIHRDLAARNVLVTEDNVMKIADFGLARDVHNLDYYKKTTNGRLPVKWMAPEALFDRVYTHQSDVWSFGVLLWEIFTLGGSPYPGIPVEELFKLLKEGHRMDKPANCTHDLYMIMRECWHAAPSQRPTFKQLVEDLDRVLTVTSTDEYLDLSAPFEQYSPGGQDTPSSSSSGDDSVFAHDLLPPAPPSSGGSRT

[3] = test system: gastric cancer cells SGC-7901; experiment: Flow cytometry cell cycle analysis of SGC-7901 cells; type: cell-based; settings: P48 with bFGF, 24 h
[4] = target: T1, FGFR1 (Homo sapiens, UniProt P11362); experiment: Western blot of FGFR1 signaling pathway in cervical cancer cells Hela229; type: cell-based; parameters: endogenous in cells; host or cells: Hela229; NCI-H460; SGC-7901; MGC-803; settings: bFGF stimulation
T1 sequence (P11362 22-822): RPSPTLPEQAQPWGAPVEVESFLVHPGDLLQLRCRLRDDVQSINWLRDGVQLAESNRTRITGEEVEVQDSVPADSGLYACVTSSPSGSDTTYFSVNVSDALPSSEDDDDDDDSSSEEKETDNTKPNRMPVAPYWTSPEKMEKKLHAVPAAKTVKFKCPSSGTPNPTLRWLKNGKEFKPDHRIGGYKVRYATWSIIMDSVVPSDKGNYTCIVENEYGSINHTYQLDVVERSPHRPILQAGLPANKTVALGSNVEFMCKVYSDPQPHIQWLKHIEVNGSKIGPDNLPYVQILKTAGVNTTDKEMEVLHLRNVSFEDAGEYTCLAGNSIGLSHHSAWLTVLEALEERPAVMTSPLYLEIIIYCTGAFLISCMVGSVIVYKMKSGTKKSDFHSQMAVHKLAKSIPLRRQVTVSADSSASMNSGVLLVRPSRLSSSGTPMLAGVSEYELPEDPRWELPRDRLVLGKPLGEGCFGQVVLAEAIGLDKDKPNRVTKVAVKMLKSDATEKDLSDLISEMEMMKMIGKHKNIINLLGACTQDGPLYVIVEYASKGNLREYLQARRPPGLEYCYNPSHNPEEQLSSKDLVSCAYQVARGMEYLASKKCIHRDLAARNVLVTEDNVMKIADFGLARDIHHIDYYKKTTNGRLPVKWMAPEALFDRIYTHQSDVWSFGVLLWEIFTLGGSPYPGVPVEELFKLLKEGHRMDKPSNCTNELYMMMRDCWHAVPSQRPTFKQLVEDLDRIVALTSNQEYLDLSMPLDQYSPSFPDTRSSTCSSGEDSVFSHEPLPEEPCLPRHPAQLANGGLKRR
Experimental: (§2) Cervical cancer cells Hela229, melanoma B16-F10, lung cancer cells NCI-H460, gastric cancer cells SGC-7901 and MGC-803 were inoculated into 6-well plates, respectively. After growing adherently overnight, the cells were pretreated with P48 for 10 min or with AZD4547/SSR for 2 h, and incubated with bFGF for 15 min or with KGF for 20 min.

[5] = target: FGFR1B (Homo sapiens, UniProt P11362); experiment: SPR detection of interaction with FGFR1B in presence of bFGF; type: binding
Chain of FGFR1B (P11362 22-822 isoform P11362-19 limits assumed): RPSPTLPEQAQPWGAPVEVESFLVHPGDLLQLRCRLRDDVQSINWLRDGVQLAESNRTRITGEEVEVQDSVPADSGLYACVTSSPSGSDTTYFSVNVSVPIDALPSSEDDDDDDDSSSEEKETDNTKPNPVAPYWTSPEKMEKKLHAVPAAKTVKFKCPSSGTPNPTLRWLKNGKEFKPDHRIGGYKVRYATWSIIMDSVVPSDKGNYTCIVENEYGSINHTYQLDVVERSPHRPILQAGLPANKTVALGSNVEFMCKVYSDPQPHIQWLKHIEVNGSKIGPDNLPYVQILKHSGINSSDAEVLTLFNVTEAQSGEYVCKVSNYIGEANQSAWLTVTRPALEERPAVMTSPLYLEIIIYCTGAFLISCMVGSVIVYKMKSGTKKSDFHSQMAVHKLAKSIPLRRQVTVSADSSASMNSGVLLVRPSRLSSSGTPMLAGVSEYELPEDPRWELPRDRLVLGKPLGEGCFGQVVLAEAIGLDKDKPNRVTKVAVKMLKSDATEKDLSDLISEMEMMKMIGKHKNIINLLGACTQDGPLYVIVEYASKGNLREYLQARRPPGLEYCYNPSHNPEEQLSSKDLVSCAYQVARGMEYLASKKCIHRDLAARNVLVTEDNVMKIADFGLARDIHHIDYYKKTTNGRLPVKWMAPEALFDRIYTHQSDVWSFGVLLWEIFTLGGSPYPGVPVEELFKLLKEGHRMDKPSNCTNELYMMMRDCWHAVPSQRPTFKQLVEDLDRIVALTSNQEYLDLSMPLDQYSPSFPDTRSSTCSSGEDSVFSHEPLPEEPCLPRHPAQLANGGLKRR
Experimental: Amino acid sequence of P9 degraded short peptide P48 was analyzed using Amber11 program. An initial structure of the P9 and P48 peptide chains was constructed using a sequence command in a Tleap module of the Amber11 program. Hydrogen atoms were added using the Tleap module of the Amber11 program, a […] TIP3P solvent box was added at a distance of 10 Å from the peptide chain, and counter ions were added to the two systems to keep the system electrically neutral. The system was subjected to 20-ns NPT system simulation to obtain an optimal spatial structure. […] The experimental procedure was as follows: the plasma was centrifuged and the supernatant was removed, and 60 μl of peptide was added to incubate for different lengths of time (P9 was incubated for 5, 10, 15, 20, 25, 30 and 45 min; P48 was incubated for 1, 2, 3, 4, 5, 10 and 12 h), and the incubation was terminated with 200 μl of 5% glacial acetic acid. Solid phase extraction: activation was conducted with 1.5 ml of methanol, an obtained product was washed with 1.5 ml of H2O, 400 μl of a sample was loaded, washed with 1 ml of H2O, and elution was conducted with 2 ml of 30% acetonitrile to collect samples, and the samples were freeze-dried and subjected to liquid chromatography analysis. […] The last 1 ns of trajectory obtained by molecular dynamics simulation of the system was selected to calculate the binding free energy, the molecules of the solvent of water and counter ion were deleted, and conformation was recorded every 10 ps to obtain a total of 101 structures. The binding free energy between FGF2 and FGFR1 were calculated by a molecular mechanics-generalized born surface area (MM-GBSA) method. The binding free energy and energy decomposition of amino acid residues were calculated using an MMPBA.py script provided by the Amber11. […] After bFGF and FGFR1 flew into the sensor chip, P48 (50 μM, 100 μM, 200 μM, 300 μM and 400 μM) was injected into a sensor surface, and the obtained data was analyzed using BIAevaluation software.

[6] = Half-life of peptides in human plasma (incubation, SPE, liquid chromatography); type: in vitro ADME; settings: compared with precursor peptide P9
[7] = test system: PLCy; experiment: Western blot of FGFR1 downstream protein PLCy in MEF-WT cells; type: cell-based; settings: bFGF stimulation 15 min
Experimental: as §1

[8] = target: T1, FGFR1; experiment: Flow cytometry binding of P48 to FGFR1 in SGC-7901 cells; type: cell-based; parameters: endogenous in cells; host or cells: Hela229; NCI-H460; SGC-7901; MGC-803
Experimental: as §1, §2

SPPRYPGGGS-NH2 [P48, Ser-Pro-Pro-Arg-Tyr-Pro-Gly-Gly-Gly-Ser-NH2]
inhibition of FGFR1 activation induced by bFGF [1]: can inhibit activation of FGFR1 induced by bFGF in a concentration-dependent manner
binding to FGFR3B [2]: can be bound
cell cycle arrest [3]: can block gastric cancer cells SGC-7901 in G0/G1 phase in a concentration-dependent manner
inhibition of FGFR1 signaling pathway [4]: can inhibit the FGFR1 signaling pathway of cervical cancer, melanoma, lung cancer and gastric cancer in a concentration-dependent manner
competitive binding to FGFR1 with bFGF ([5]; P48 50-400 μM): can competitively bind to FGFR1 with basic fibroblast growth factor (bFGF)
concentration dependence of binding force ([5]; P48 50-400 μM): a higher concentration leads to a stronger binding force
binding degree FGFR1 versus FGFR2 and FGFR3 ([5]; comparison of FIG. 1F and FIG. 2): stronger than that with FGFR2 and FGFR3
half-life in plasma [6]: relatively prolonged half-life
inhibitory effect on downstream PLCy [7]: no significant inhibitory effect
binding to the FGFR1 site of the cell membrane surface [8]: desirable binding effect
